This note sets out measurements from ChEMBL document CHEMBL2150907, “BACE-Inhibitors: Potential Treatment of Alzheimer Disease, Dementia, and Related Neurodegenerative Diseases. C. Spiro-Heterocyclic Derivatives: Patent Highlight” (ACS Med Chem Lett, 2012).

A word on the IC50: it is the point on the concentration scale where inhibition reaches its midpoint.

Molecules are shown by their SMILES.

Beta-secretase 1, sequence (P56817 whole entry): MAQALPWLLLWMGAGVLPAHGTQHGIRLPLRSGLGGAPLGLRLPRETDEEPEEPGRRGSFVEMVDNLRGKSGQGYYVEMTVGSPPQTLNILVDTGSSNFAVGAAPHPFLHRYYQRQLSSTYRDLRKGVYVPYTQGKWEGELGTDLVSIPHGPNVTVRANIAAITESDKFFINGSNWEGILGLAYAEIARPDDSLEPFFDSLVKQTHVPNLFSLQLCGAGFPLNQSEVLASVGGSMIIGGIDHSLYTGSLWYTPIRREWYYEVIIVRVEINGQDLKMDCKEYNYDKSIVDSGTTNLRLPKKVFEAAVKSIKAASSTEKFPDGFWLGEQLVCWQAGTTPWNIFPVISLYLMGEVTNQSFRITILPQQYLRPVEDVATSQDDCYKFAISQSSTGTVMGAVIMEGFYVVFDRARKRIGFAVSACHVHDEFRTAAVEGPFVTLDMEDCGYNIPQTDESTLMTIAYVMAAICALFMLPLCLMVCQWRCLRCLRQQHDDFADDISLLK

The test addresses Beta-secretase 1 (Homo sapiens, UniProt P56817). In words: Inhibition of BACE1-mediated amyloid beta (1 to 40) production after 48 hrs by cell based HTRF immunoassay. A general note: TR-FRET usually uses a lanthanide donor and a delayed reading to cut background.
For `NC1=N[C@@]2(CO1)c1cc(-c3cncc(Cl)c3)ccc1OC1OC[C@H](OCC3CC3)C[C@@H]12` (single isomer, unassigned), the IC50 turned out to be 7.8 nM.

`CN1C(=O)CC2(N=C1N)c1cc(-c3cc(F)cc(Cl)c3)ccc1OC1CC3(CC[C@@H]12)OCCO3` (stereo partly drawn) came in with an IC50 of 3080 nM.

The molecule `NC1=N[C@]2(CO1)c1cc(-c3cncc(Cl)c3)ccc1OC1OC[C@H](OCC3CC3)C[C@@H]12` (mixture of isomers) yielded an IC50 of 8.9 nM.
